# In ChEMBL document CHEMBL1157539, “Thousands of chemical starting points for antimalarial lead identification” (Nature, 2010):
# Where “and” joins values, the source holds several entries; their conditions need not be identical. Identical values can stand only once.
# System: Plasmodium falciparum
# Assay: GSK_TCMDC: Inhibition of Plasmodium falciparum 3D7 in whole erythrocytes, using parasite LDH activity as an index of growth.
# Assay type: functional, organism-based
# Conditions: not given
row,SMILES,XC50
1,O=C(/C=C/c1ccc(Cl)c(Cl)c1)NC1CCC(CN2CCC(c3c[nH]c4ccc(O)cc34)CC2)CC1 (stereo not drawn),0.417 µM and 0.14 µM
2,Cc1[nH]c2cc(F)ccc2c(=O)c1Cc1ccc(Cl)cc1.Cc1[nH]c2cccc(F)c2c(=O)c1Cc1ccc(Cl)cc1,0.232 µM

# Same assay, conditions: Plasmodium falciparum, 3D7
row,SMILES,XC50
1,Cc1ccc(Sc2ccc(NC(=O)CN3CCN(C(=O)c4ccco4)CC3)cc2)cc1C,0.911 µM
2,COc1cc(-c2nc3ccc(N4CCN(C)CC4)cc3[nH]2)cc(OC)c1OC,1.27 µM
3,Cc1[nH]c(C)c(-c2ccc(OCCn3cnc(Cl)c3Cl)cc2)c(=O)c1Br,0.853 µM
4,CS(=O)(=O)c1ccc(CNCc2ccc(-c3ccc(-c4nc5cc(C(F)(F)F)ccc5[nH]4)s3)cc2)cc1,0.156 µM
5,Cc1nc(C)c(-c2ccc(Oc3ccc(Cl)cc3Cl)cc2)c(O)c1Br,0.297 µM
6,N=c1ccn(CC(=NO)c2ccc(Cl)c(Cl)c2)cc1,0.943 µM
7,NCC1CCCN1Cc1cccc(-c2cccc(-c3nc4cc(F)ccc4[nH]3)c2)c1 (stereo not drawn),0.813 µM
8,COc1ccc(CN(C)CCCCc2ccc(NC(=O)COc3cccc4sc5ccccc5c(=O)c34)cc2)cc1OC,0.809 µM
9,COc1ccc(NC(=O)Nc2ccc(-c3ccncc3)c(C(F)(F)F)c2)cc1N1CCN(C)CC1,0.763 µM
10,CCCN(CCC)C(=O)c1cc(-c2cccc(C)c2)nc2ccccc12,1.06 µM
11,CCn1cc(-c2cc(C(=O)Nc3ccc(OC)cc3C)c3ccccc3n2)c(C)n1,0.975 µM
12,CCN(CC)CCOC(=O)c1ccc(NC(=O)c2cn(-c3ccccc3)nc2-c2cccs2)cc1,0.379 µM
13,C=CCOC(=O)N1CCC(CNCc2ccc(-c3ccc(-c4nc5cc(C(F)(F)F)ccc5[nH]4)cc3)cc2)C1 (stereo not drawn),0.15 µM
14,COc1ccc(N2CCN(CCCCNC(=O)c3ccc(NC(=O)c4cc(Cl)cc(Cl)c4)cc3)CC2)c(OC)c1,0.299 µM
15,O=C(Nc1ccc(-c2cccc(-c3nc4cc(F)ccc4[nH]3)c2)cc1)Nc1ccc(F)c(F)c1F,0.739 µM
16,COc1ccc(CNc2ncnc3c2[nH]c2ccc(F)cc23)cc1,0.98 µM
17,CC(=O)Nc1nnc(SCc2c(C)cc(C(C)(C)C)cc2C)s1,0.704 µM
18,Cc1ccc(C(=O)N2CCN(Cc3nccs3)CC2)cc1,1.01 µM
19,CN(C)Cc1ccc2cc(NC(=O)c3ccc(-c4ccc(Cl)cc4)cc3)ccc2c1,1.34 µM
20,CC1(C)N=C(N)N=C(N)N1OCc1cccc(C#N)c1,0.00793 µM
21,c1cc(CNC2Cc3ccccc3C2)cc(-c2cnc(N3CCNCC3)nc2)c1,0.943 µM
22,O=C(Cc1c[nH]cn1)Nc1cccc(-c2ccc(-c3nc4cc(C(F)(F)F)ccc4[nH]3)s2)c1,0.773 µM
23,O=C(Nc1cccc(F)c1)NC1CCN(c2ccnc3cc(Cl)ccc23)C1 (stereo not drawn),0.189 µM
24,Cc1cnn(-c2cccc(C(=O)NC3CCC(CCN4CCc5ccc(C#N)cc5CC4)CC3)c2)c1 (stereo not drawn),0.932 µM

row,SMILES,XC50
1,CC(C)c1cc(Oc2c(I)cc(CCCc3ncc[nH]3)cc2I)ccc1O,1.12 µM
2,CN1CCc2ccc(NC(=O)Nc3ccc(-c4ccccc4)cc3)cc2C1,0.511 µM
3,CC1(C)NC(N)=NC(=N)N1OCc1cccs1,0.0032 µM
4,O=C(NC1CCCCC1)N(CCCn1ccnc1)Cc1csc(-c2ccc(CNCc3ccccc3)cc2)n1,0.843 µM
5,O=C(Nc1ccc(Cl)cc1)c1ccc(S(=O)(=O)NCC2CCN(CC3CCCCC3)CC2)cc1,0.857 µM
6,Nc1c2c(nc3ccc(C(=O)Nc4ccccc4)cc13)CCCC2,0.714 µM
7,CC(C)N1CCN(c2ccc(OCCCN3CCN(c4cccc(Cl)c4Cl)CC3)c(C(F)(F)F)c2)CC1,0.81 µM
8,Cc1ccnc(NC(c2ccc(Cl)c([N+](=O)[O-])c2)c2ccc3cccnc3c2O)c1 (stereo not drawn),0.927 µM
9,COc1c(C)[nH]c(C)c(-c2ccc(Oc3cccc(C(F)(F)F)c3)cc2)c1=O,0.314 µM
10,CN(C)CCCOc1ccc(CN2CC[C@H](NC(=O)c3ccc(Cl)c(Cl)c3)C2)cc1Br,0.763 µM
11,COc1cc2nc(N3CCC(CNC(=O)c4cc(Br)c(Br)s4)CC3)nc(N)c2cc1OC,0.707 µM
12,O=C(CNC1CCCCC1)Nc1cccc(C(=O)Nc2cccc(C(F)(F)F)c2)c1,0.416 µM
13,Cc1cccc2nc(-c3ccc(-c4ccc(NC(=O)NCc5ccc(F)cc5)cc4)cc3)[nH]c12,1.33 µM
14,CCOc1ccc(CNCCCCCCNCc2ccc(OCC)c3ccccc23)c2ccccc12,0.447 µM
15,Nc1c(Cl)cc(C(O)CNCCCCCCOCCc2ccc(CO)s2)cc1Cl (stereo not drawn),1.05 µM
16,O=C(CCc1c[nH]cn1)Nc1cccc(-c2cccc(-c3nc4cc(C(F)(F)F)ccc4[nH]3)c2)c1,0.132 µM
17,CN1CCN(c2cc3c(cc2Cl)CCN3C(=O)Nc2ccc(NC(=O)c3ccc(C(F)(F)F)cc3)cc2)CC1,0.515 µM
18,Nc1nc(O)c2c(n1)CCc1c(Br)cccc1-2,0.697 µM
19,COc1ccc2nccc(N3CCC(O)(CCNCc4ccc5c(n4)NC(=O)CO5)CC3)c2n1,0.819 µM
20,CCOc1ccc2c(=NN=Cc3c4ccccc4cc4ccccc34)cc(C)[nH]c2c1,1.07 µM
21,O=C(/C=C/c1ccc(Cl)c(Cl)c1)N1CCN(C(=O)Nc2ccc(F)c(Cl)c2)CC1,0.724 µM
22,Cc1cc(N(C)CCCN(C)C)nc(Nc2ccc(Cl)cc2)n1,1.02 µM
23,CCCCNc1nc(NCCCC)c2c(C)c(Cc3ccccc3)c(NCCCC)nc2n1,0.889 µM
24,O=C(Nc1cccc(-c2ccc(-c3nc4ccccc4[nH]3)cc2)c1)c1cnn2cccnc12,1.06 µM

row,SMILES,XC50
1,CC1CN(c2cnn(C/C=C/c3ccc(NC(=O)c4ccc([N+](=O)[O-])cc4)cc3)c(=O)c2Cl)CC(C)N1 (stereo not drawn),0.701 µM
2,CCn1c(-c2nonc2N)nc2c(-c3cc4ccccc4s3)ncc(C(=O)N3CCC(N)C3)c21 (stereo not drawn),0.871 µM
3,COc1cc2nc(N3CCC(CNC(=O)/C=C/c4cccc(C)c4)CC3)nc(N)c2cc1OC,0.684 µM
4,Cc1ncccc1-c1cccc2c(NC(=O)Nc3ccc4nccc(N5CCN(C)CC5)c4c3)cccc12,0.632 µM
5,CCCCNc1cc(NCCCC)c2c(n1)[nH]c1ccccc12,0.57 µM
6,Oc1ccc(CCNc2nc(NCc3ccccc3-c3ccc(F)cc3)nc(N3CCNCC3)n2)cc1,1.07 µM
7,COc1ccc(CNCc2ccccc2)cc1-c1ccc(S(=O)(=O)NCCN2CCCC2)c(F)c1,1.14 µM
8,CNC(=O)CC(=O)NCCc1ccc(Cl)cc1,0.811 µM
9,COc1cccc(CN2CCC(CCOC(c3ccccc3)c3ccc(Cl)cc3)CC2)c1O (stereo not drawn),0.713 µM
10,CCCCCCCN(Cc1ccc(OC(C)(C)C(=O)OCC)cc1)C(=O)Cc1ccc(F)cc1F,1.03 µM
11,O=C(Nc1cccc(F)c1)c1ccc(C(=O)NC2CCN(CC3CCCCC3)CC2)cc1,0.863 µM
12,N#Cc1cccc(CN(Cc2ccc(Cl)c(Cl)c2)S(=O)(=O)c2cccc([N+](=O)[O-])c2)c1,0.808 µM
13,Cc1c(-c2cccc(NC(=O)C(C)(C)Oc3ccc(Cl)cc3)c2)nc2ncccn12,0.17 µM
14,CC(C)(C)c1ccc(NC(=O)c2cccc(CN3CCCN(Cc4ccsc4)CC3)c2)cc1,0.76 µM
15,COc1cc(NC(=O)c2nn(CCCN3CCC(N4CCCC4)CC3)cc2-c2ccc(Cl)c(Cl)c2)cc(OC)c1OC,0.555 µM
16,COc1ccc(C2CC(c3cccs3)=NN2C(=O)c2ccco2)cc1OC (stereo not drawn),0.172 µM
17,COc1cccc(CC(C)NCC(O)c2cccc(Cl)c2)c1 (stereo not drawn),1.27 µM
18,COc1ccc2ncc(F)c(CCN3CCC[C@H](CNCc4ccc5c(n4)NC(=O)CS5)C3)c2n1,0.97 µM
19,CCNC(=O)N1CCN(c2nc(-c3ccccc3)nc(COC)c2Cc2ccc(C)cc2)CC1,0.989 µM
20,CN(C)CC(O)C(c1ccccc1)c1cccc(Br)c1 (stereo not drawn),0.164 µM
21,CC(=O)Nc1cccc(C(=O)Nc2ccc(-c3cccc(-c4nc5cccc(C)c5[nH]4)c3)cc2)c1,0.789 µM
22,Cn1ccnc1CNC(=O)c1ccc(-c2cccc(-c3nc4cc(C(F)(F)F)ccc4[nH]3)c2)cc1,0.723 µM
23,CC(C)C[C@H](NC(=O)c1ccc(OCCN2CCOCC2)cc1)C(=O)N[C@H](/C=N/N1CC(=O)NC1=O)CCc1ccccc1,0.277 µM
24,COc1ccccc1C1CC(c2ccc(Br)cc2)=NN1C(=O)c1ccccc1 (stereo not drawn),1.11 µM

row,SMILES,XC50
1,OCC1CCN(Cc2ccc(-c3ccc(-c4nc5cc(C(F)(F)F)ccc5[nH]4)s3)cc2)CC1,0.477 µM
2,CC(C)(C)NCc1cc(Nc2ccnc3cc(Cl)ccc23)ccc1F,0.0303 µM
3,NC1=NC(c2ccccc2)(c2ccccc2)C(=O)N1Cc1ccc(-c2cccnc2)cc1,0.704 µM
4,CC(C)CNCc1cccc(-c2ccc(CN(C(=O)c3cccs3)C3CCN(Cc4ccccc4)CC3)cc2)c1,1.01 µM
5,c1ccc(Oc2ccc(Nc3nncc4ccccc34)cc2)cc1,0.686 µM
6,O=C(Nc1cccc(C(F)(F)F)c1)c1ccc(S(=O)(=O)NCC2CCCN2CC2CCCCC2)cc1 (stereo not drawn),0.751 µM
7,CC(=O)Nc1ccc(CN2CCC(N(C)c3cc(NC(=O)c4ccc(F)cc4)ccn3)CC2)cc1,1.12 µM
8,Cc1cc(=O)c2cc(-c3ccc(OC(F)(F)F)cc3)ccc2[nH]1,0.476 µM
9,Cc1ccccc1C1CCN(C2CCC(NC(=O)/C=C/c3cccc(F)c3F)CC2)CC1 (stereo not drawn),1.15 µM
10,Cc1cc(F)ccc1Oc1nc(Nc2ccc(N3CCOCC3)c(F)c2)nc2c1S(=O)(=O)CCC2,0.462 µM
11,COc1ccc(OC)c(C=NNc2nc3ccccc3[nH]2)c1,0.729 µM
12,COc1ccc(C(C(=O)NC2CCN(C[C@H](O)c3ccnc4ccc(OC)cc34)CC2)N2CCN(Cc3ccccc3)CC2)cc1 (stereo partly drawn),0.149 µM
13,O=C(/C=C/c1ccc(Cl)c(Cl)c1)N1CCC(CN2CCC(Cc3c[nH]c4ccccc34)CC2)CC1,0.674 µM
14,COC(=O)/C=C/c1ccc(CCC(C)NCC(O)c2cccc(Cl)c2)cc1 (stereo not drawn),0.935 µM
15,COC(=O)c1ccc(-c2ccc(C(=O)NCC3CCN(c4nc(N)c5cc(OC)c(OC)cc5n4)CC3)cc2)cc1,0.185 µM
16,Cc1[nH]c2cc(F)ccc2c(=O)c1Cc1ccc(Cl)cc1.Cc1[nH]c2cccc(F)c2c(=O)c1Cc1ccc(Cl)cc1,0.348 µM
17,Oc1ccc2c(c1CNC1CCCCC1)CCCC2,0.938 µM
18,COc1ccc(C2CCN(CCCCNC(=O)c3ccc(NC(=O)c4ccc(Cl)cc4)cc3)CC2)c(C)c1,0.747 µM
19,CCOc1cc(N)c2nc3ccc([N+](=O)[O-])cc3cc2c1,0.145 µM
20,COc1ccc(CN(C)CCCc2ccc(NC(=O)c3cccc4c(=O)c5cccc(F)c5[nH]c34)cc2)cc1OC,0.937 µM
21,CNC(=O)c1ccccc1Nc1nc(Nc2ccc(C(=O)O)cc2)ncc1Cl,0.95 µM
22,CN1CCC(NCc2ccc(S(=O)(=O)Nc3ccc(Oc4cccc(Cl)c4)cc3)cc2)CC1,0.735 µM
23,CC(C)C[C@@H](/C=N/N1CCOC1=O)NC(=O)[C@H](CC(C)C)NC(=O)c1ccc(OCCN2CCOCC2)cc1,0.215 µM
24,Fc1ccc(Nc2ccnc3cc(-c4cccc(CN5CCCCC5)c4)ccc23)c(Cl)c1,0.0318 µM
